Test results as given in US5459146A, “4-substituted pyrazoloquinoline derivatives” (Schering Corporation, priority 1993, dated 1995).
Values after ≈ are worked out from the molar mass of the structure shown.

Tests used:
[1] = test system: HSV Early Gene Expression; assay: Transient Expression Assay for Effects Against HSV Early Gene Expression (β Galactosidase Assay or βgal); assay type: cell-based; details: read-out: βgal
Description: (§1) The compound toxicity assay (3H-LEU), Plaque Reduction Assay for HSV Antiviral Activity (Plaque), and Transient Expression Assay for Effects Against HSV Early Gene Expression (β Galactosidase Assay or βgal) were carried out as set forth in U.S. Pat. No. 5,175,151 which is hereby incorporated by reference.

[2] = compound toxicity assay (3H-LEU); assay type: cell-based
Description: as §1

[3] = test system: HSV; assay: Plaque Reduction Assay for HSV Antiviral Activity (Plaque); assay type: cell-based
Description: as §1

[4] = test system: HSV-1 and HSV-2; details: added to lidocaine or lidocaine hydrochloride; Haines et al.; cited from earlier work
[5] = test system: herpes virus; details: U.S. Pat. No. 4,757,088; cited from earlier work
[6] = test system: HSV-2; details: U.S. Pat. No. 4,757,088; cited from earlier work
[7] = test system: HSV; details: Haines et al.; cited from earlier work
[8] = test system: HSV-1; details: U.S. Pat. No. 4,757,088; cited from earlier work

## CC(=O)Oc1ccc2nc3[nH]nc(C)c3c(OC(C)=O)c2c1 [A]
[1]
  IC50: 3 µg/mL (≈ 10 µM)
[2]
  CC50: 14 µg/mL (≈ 46.8 µM)

## CC(=O)Oc1ccc2nc3c(c(C)nn3C(C)=O)c(O)c2c1 [B]
[1]
  IC50: 8 µg/mL (≈ 26.7 µM)
[2]
  CC50: 15 µg/mL (≈ 50.1 µM)

## CCCCC(=O)Oc1ccc2nc3[nH]nc(C)c3c(OC(=O)CCCC)c2c1 [C]
[1]
  IC50: 5 µg/mL (≈ 13 µM)
[2]
  CC50: 5 µg/mL (≈ 13 µM)

## CCC(=O)Oc1ccc2nc3[nH]nc(C)c3c(OC(=O)CC)c2c1 [D]
[1]
  IC50: 11 µg/mL (≈ 33.6 µM)

## COc1ccc2nc3c(c(C)nn3C(C)=O)c(O)c2c1 [E]
[1]
  IC50: 3 µg/mL (≈ 11.1 µM)
[2]
  CC50: 23 µg/mL (≈ 84.8 µM)

## CC(=O)n1nc(C)c2c(O)c3cc(Cl)ccc3nc21 [F]
[1]
  IC50: 9 µg/mL (≈ 32.6 µM)
[2]
  CC50: 37 µg/mL (≈ 134 µM)

## CC(=O)Oc1c2cc(F)ccc2nc2[nH]nc(C)c12 [G]
[1]
  IC50: 3 µg/mL (≈ 11.6 µM)
[2]
  CC50: 43 µg/mL (≈ 166 µM)

## CC(=O)n1nc(C)c2c(O)c3cc(F)ccc3nc21 [H]
[1]
  IC50: 2 µg/mL (≈ 7.71 µM)
[2]
  CC50: 32 µg/mL (≈ 123 µM)

## CCCCCCCn1nc(C)c2c(OC(C)=O)c3cc(OC)ccc3nc21 [I]
[1]
  IC50: 2.8 µg/mL (≈ 7.58 µM)
[2]
  CC50: < 1 µg/mL

## CC(=O)n1nc(C)c2c(O)c3cc(C)ccc3nc21 [J]
[1]
  IC50: 9 µg/mL (≈ 35.3 µM)
[2]
  CC50: 100 µg/mL (≈ 392 µM)

## COc1cc(C)c2[nH]c3c(c(C)nn3C(C)=O)c(=O)c2c1 [K]
[1]
  IC50: 5 µg/mL (≈ 17.5 µM)
[2]
  CC50: > 100 µg/mL

## CCCCCCCn1nc(C)c2c(=O)c3cc(C)ccc3[nH]c21 [L]
[1]
  IC50: 3 µg/mL (≈ 9.63 µM)
[2]
  CC50: 3.4 µg/mL (≈ 10.9 µM)

## CCCCCCCn1nc(C)c2c(OC(C)=O)c3cc(C)ccc3nc21 [M]
[1]
  IC50: 3 µg/mL (≈ 8.49 µM)
[2]
  CC50: < 1 µg/mL

## COc1cccc2c(O)c3c(C)nn(C(C)=O)c3nc12 [N]
[1]
  IC50: 3 µg/mL (≈ 11.1 µM)
[2]
  CC50: 100 µg/mL (≈ 369 µM)

## COc1ccc2nc3[nH]nc(C)c3c(OCCN(C)C)c2c1 [O]
[1]
  IC50: 1.4 µg/mL (≈ 4.66 µM)
[2]
  CC50: 5.4 µg/mL (≈ 18 µM)
[3]
  IC50: 0.7 µg/mL (≈ 2.33 µM)

## COc1ccc2nc3c(c(C)nn3CCCO)c(OC)c2c1 [P]
[1]
  IC50: 7.2 µg/mL (≈ 23.9 µM)
[3]
  IC50: > 20 µg/mL

## COc1ccc2nc3[nH]nc(C)c3c(OCCN3CCOCC3)c2c1 [Q]
[1]
  IC50: 20 µg/mL (≈ 58.4 µM)
[3]
  IC50: 20 µg/mL (≈ 58.4 µM)

## C=CCOc1ccc2nc3c(c(C)nn3CC=C)c(O)c2c1 [R]
[1]
  IC50: 20 µg/mL (≈ 67.7 µM)
[3]
  IC50: 20 µg/mL (≈ 67.7 µM)

## CC(C)(CO)[C@@H](O)C(=O)NCCCO [dexpanthenol]
[4]
  antiviral activity of lidocaine or lidocaine hydrochloride on addition of the substance: significantly enhances

## CCN(CC)CC(=O)Nc1c(C)cccc1C [lidocaine, 2-(diethylamino)-N-(2,6-dimethylphenyl)acetamide]
[5]
  treatment of herpes virus infections of mammals: able to treat herpes virus infections of mammals
[6]
  antiviral activity in cell culture against HSV-2: antiviral agent
[7]
  treatment of HSV oral and genital lesions in humans: particularly effective
[8]
  antiviral activity in cell culture against HSV-1: antiviral agent

## CC(C)(CO)[C@@H](O)C(=O)NCCC(=O)O [panthothenic acid]
[4]
  antiviral activity of lidocaine or lidocaine hydrochloride on addition of the substance: significantly enhances
